Measurements: US20210340142A1, “SALT FORM AND CRYSTAL FORM OF NOVEL AZATRICYCLIC COMPOUND AND USE THEREOF” (BETTA PHARMACEUTICALS CO., LTD, priority 2018, published 2021)

Key:
[1] = system: SNU-16 cells; experiment: Cell proliferation assay (CellTiter Glo); type: cell-based; settings: Homo sapiens, growth inhibition in vitro, 96 hrs
Method: Test method: the cells were added appropriate volume of whole medium to suspend. 100 μl of the cell suspension was added to a 96-well plate and placed in a CO2 incubator overnight. Tested compounds were dissolved in DMSO and subjected to a 3-fold gradient dilution for a total of 10 concentrations. Tested compound and DMSO reference materials were transferred to the corresponding wells containing 100 μl of medium respectively. Incubated in 5% CO2 at 37° C. for 96 hrs. 100 μl of CellTiter-Glo reagent was added to the assay plate and incubated for 10 min at room temperature to stabilize the luminescence signal. The IC50 value was calculated by recording the RLU (relative luminescence unit) using VICTOR TM X5 instrument.

[2] = biological target: FGFR2 (Homo sapiens, UniProt P21802); experiment: Kinase assay (mobility shift assay)
Text: (§1) Prepare compounds: dilute test compounds to specific concentration using 100% DMSO

[3] = Stability assessment (influencing factors, 14 days; XRD, TGA, HPLC); type: physicochemical; settings: for Crystalline form (XRD) / Decrease value of the main ingredient content (HPLC) / Weight loss (TGA): 14th day
Method: Samples and preparation of experimental: An appropriate amount of maleate salt crystalline form 1, methanesulfonate salt crystalline form 1 and the compound of Formula I were put in watch glasses, and then spread into a thin layer about 3-5 mm in thickness.
Experimental conditions: Under conventional (25° C., avoid light), high temperature (60° C., avoid light), high temperature and high humidity (40° C./75% RH, open and avoid light), light (25° C., 4500 lux±500 lux, open) and oxidation (40° C., container closure containing urea hydrogen peroxide, open and avoid light) conditions for 14 days.
Test items: Sampled on 0th day and 14th day, the XRD, TGA and HPLC were tested and compared, the test results on the 14th day were show in Table 27.

[4] = Pharmacokinetic study of compound of Formula I and maleate salt crystalline form 1 (Example 22); type: in vivo; settings: male, rat, plasma, SD rats, oral, 10 mg/kg, 10% DMSO/10% Solutol/80% Water
Text: Drugs and reagents: 6-(2-chloro-3,5-dimethoxyphenyl)-N-(4-(4-morpholinopiperidin-1-yl)phenyl)-[1,2,4]triazolo[4′, 3′:1,6]pyrido[2,3-d]pyrimidin-2-amine (compound of Formula I), and maleate salt crystalline form 1 of the compound of Formula I used in this study were grounded to fine particles. The material content (purity) was not less than 99.0%.
Experimental animals: SD rats were randomly divided into the compound of Formula I group and maleate salt crystalline form 1 group, each group including three male rats.
Pharmaceutical preparation: each compound was prepared into a clear solution in 10% DMSO/10% Solutol/80% Water solution, the final concentration of each compound was 1 mg/mL.
Administration and sample collection: each suspension was orally administered to fasted SD rats with a dose volume of 10 mL/kg and an administration dose of 10 mg/kg. The blood samples were collected in EDTA-K pre-anticoagulantion tubes before administration (0 h) and at 0.25 h, 0.5 h, 1 h, 2 h, 4 h, 7 h and 24 h after administration. The plasma was separated from the samples by centrifugation at 4000 rpm for 10 minutes at 4° C. The plasma was collected and stored at −80° C. for analysis.
The samples were analyzed by AB4000 API LC/MS combined with HPLC. Under liquid chromatography conditions, a phenomenex C18 2.6 u (50×2.1 mm) column was used as the stationary phase, acetonitrile-water and 0.1% formic acid were used as the mobile phase, and the injection volume was 10 μL.

[5] = biological target: FGFR3 (Homo sapiens, UniProt P22607); experiment: Kinase assay (mobility shift assay)
Text: as §1

[6] = Hygroscopicity assessment by dynamic vapor sorption (DVS); type: physicochemical; settings: weight change between 0% RH to 80% RH, 25° C.
Method: The hygroscopicity of the sample (the sample is a variety of crystal forms shown in Table 26) was tested using dynamic vapor sorption (DVS) instrument, and the water uptake of the sample at 0% RH (relative humidity) to 80% RH was tested.

[7] = biological target: FGFR4 (Homo sapiens, UniProt P22455); experiment: Kinase assay (mobility shift assay)
Text: as §1

[8] = Pharmacokinetic study of compound of Formula I and salt forms (Example 23); type: in vivo; settings: male, rat, plasma, SD rats, oral, 10 mg/kg, prepared in purified water 0.5 mg/mL
Text: Drugs and reagents: 6-(2-chloro-3,5-dimethoxyphenyl)-N-(4-(4-morpholinopiperidin-1-yl)phenyl)-[1,2,4]triazolo[4′,3′:1,6]pyrido[2,3-d]pyrimidin-2-amine (compound of Formula I) and salt forms thereof which include malate salt crystalline form, tartrate salt crystalline form, phosphate salt crystalline form, methanesulfonate salt crystalline form, hydrochloride salt crystalline form, fumarate salt crystalline form, citrate salt crystalline form, besylate salt crystalline form used in this study were ground to fine particles.
Experimental animals: SD rats were randomly divided into the compound of Formula I group and each salt crystalline form of the compound of Formula I group, each group including three male rats.
Pharmaceutical preparation: each compound was prepared in purified water, wherein, the mesylate salt crystalline form, hydrochloride salt crystalline form and besylate salt crystalline form were prepared into a clear solution, the malate salt crystalline form, tartrate salt crystalline form, phosphate salt crystalline form, fumarate salt crystalline form, citrate salt crystalline form and sulfate salt crystalline form were prepared into a suspension, and final concentration of each compound was 0.5 mg/mL. […]
The samples were analyzed by AB4000 API LC/MS combined with HPLC. […]

[9] = system: NCI-H1581 cells; experiment: cells; settings: Homo sapiens, NCI-H1581, read-out: IC50 on NCI-H1581 cells
Method: 100 μl of CellTiter-Glo reagent was added to the assay plate and incubated for 10 min at room temperature to stabilize the luminescence signal.

[10] = conventional (25° C., avoid light)
[11] = high temperature (60° C., avoid light)
[12] = high temperature and high humidity (40° C./75% RH)
[13] = oxidation (40° C., urea hydrogen peroxide)

Sequence of FGFR4 (P22455 22-802, species assumed): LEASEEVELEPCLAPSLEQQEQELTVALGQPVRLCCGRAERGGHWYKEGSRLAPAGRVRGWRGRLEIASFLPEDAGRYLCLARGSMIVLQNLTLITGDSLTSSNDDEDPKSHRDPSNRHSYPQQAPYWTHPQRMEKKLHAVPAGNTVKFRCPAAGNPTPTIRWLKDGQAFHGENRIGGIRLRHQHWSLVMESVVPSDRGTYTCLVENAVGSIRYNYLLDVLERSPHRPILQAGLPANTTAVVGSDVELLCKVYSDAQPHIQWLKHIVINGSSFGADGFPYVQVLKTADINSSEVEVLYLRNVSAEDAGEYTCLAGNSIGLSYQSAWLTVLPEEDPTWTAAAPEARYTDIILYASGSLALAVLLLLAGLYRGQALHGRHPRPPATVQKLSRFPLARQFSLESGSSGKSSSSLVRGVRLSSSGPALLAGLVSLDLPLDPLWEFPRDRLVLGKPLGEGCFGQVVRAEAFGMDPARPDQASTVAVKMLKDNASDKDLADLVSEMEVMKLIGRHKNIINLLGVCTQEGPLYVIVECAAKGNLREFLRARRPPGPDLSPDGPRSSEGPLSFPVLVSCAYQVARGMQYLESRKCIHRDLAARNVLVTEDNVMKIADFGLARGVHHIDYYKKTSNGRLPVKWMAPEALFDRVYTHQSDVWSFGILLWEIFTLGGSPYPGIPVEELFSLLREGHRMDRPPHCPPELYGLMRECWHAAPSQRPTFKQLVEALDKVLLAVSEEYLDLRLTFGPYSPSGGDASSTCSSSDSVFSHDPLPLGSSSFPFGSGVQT
Sequence of FGFR2 (P21802 22-821, species assumed): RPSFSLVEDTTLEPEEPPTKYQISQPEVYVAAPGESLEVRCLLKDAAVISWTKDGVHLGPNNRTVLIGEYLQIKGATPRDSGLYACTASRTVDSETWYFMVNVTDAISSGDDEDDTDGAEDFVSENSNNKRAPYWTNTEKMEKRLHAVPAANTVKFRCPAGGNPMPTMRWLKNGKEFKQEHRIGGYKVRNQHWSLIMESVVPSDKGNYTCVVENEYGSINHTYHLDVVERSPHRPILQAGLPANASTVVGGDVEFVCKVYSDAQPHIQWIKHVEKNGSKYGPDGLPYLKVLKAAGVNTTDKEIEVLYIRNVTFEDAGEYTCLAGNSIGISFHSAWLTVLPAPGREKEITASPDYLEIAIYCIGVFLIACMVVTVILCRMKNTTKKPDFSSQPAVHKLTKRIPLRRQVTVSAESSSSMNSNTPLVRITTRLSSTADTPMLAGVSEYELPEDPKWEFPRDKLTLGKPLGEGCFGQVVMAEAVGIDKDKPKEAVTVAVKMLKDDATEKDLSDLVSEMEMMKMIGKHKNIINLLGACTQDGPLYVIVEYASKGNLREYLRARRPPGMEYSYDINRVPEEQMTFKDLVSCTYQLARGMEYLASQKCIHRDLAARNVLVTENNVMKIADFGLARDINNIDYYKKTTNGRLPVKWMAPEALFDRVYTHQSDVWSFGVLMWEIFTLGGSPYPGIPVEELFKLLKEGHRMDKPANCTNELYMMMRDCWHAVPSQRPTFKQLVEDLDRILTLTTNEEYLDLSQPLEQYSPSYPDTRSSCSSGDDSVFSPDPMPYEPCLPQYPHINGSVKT
Sequence of FGFR3 (P22607 23-806, species assumed): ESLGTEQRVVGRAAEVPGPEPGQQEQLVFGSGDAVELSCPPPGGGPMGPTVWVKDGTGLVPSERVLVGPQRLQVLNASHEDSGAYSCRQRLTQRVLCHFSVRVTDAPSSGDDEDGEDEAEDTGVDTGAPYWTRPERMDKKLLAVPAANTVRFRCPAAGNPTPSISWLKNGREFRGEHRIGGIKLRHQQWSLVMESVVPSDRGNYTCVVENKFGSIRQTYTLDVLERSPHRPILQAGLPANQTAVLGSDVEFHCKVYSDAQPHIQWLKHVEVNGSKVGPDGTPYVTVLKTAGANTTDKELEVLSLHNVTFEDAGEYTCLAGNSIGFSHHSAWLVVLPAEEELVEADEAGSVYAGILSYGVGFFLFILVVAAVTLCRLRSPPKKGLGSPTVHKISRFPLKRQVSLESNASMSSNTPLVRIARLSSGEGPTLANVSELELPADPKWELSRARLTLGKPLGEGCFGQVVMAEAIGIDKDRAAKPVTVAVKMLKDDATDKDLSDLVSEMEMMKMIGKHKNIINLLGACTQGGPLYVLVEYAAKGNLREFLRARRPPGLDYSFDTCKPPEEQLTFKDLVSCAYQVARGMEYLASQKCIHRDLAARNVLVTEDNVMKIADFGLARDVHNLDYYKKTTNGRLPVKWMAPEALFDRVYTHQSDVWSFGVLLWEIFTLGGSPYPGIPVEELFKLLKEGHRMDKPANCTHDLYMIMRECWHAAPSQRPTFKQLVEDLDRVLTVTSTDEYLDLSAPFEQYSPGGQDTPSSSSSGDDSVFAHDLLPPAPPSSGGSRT

COc1cc(OC)c(Cl)c(-c2cc3cnc(Nc4ccc(N5CCC(N6CCOCC6)CC5)cc4)nc3n3cnnc23)c1 [compound of Formula I, 6-(2-chloro-3,5-dimethoxyphenyl)-N-(4-(4-morpholinopiperidin-1-yl)phenyl)-[1,2,4]triazolo[4′,3′:1,6]pyrido[2,3-d]pyrimidin-2-amine]
IC50 [1]: < 1 nM
IC50 [2]: 1.7 nM
Crystalline form (XRD) [3, 10]: unchanged
Decrease value of the main ingredient content (HPLC) [3, 10]: <0.4%
Weight loss (TGA) [3, 10]: 20%-22%
Crystalline form (XRD) [3, 11]: transformed
Decrease value of the main ingredient content (HPLC) [3, 11]: 13.5%
Weight loss (TGA) [3, 11]: about 18%
Decrease value of the main ingredient content (HPLC) [3, 12]: <0.4%
Weight loss (TGA) [3, 12]: 20%-22%
Crystalline form (XRD) ([3]; high temperature and high humidity (40° C./75% RH, open, avoid light)): decrease
Weight loss (TGA) ([3]; light (25° C., 4500 lux±500 lux)): 20%-22%
Crystalline form (XRD) ([3]; light (25° C., 4500 lux±500 lux, open)): transformed
Decrease value of the main ingredient content (HPLC) [3, 13]: 40.3%
Weight loss (TGA) [3, 13]: about 27%
Crystalline form (XRD) ([3]; oxidation (40° C., urea hydrogen peroxide, open, avoid light)): transformed
stability of crystalline form (XRD, overall statement) ([3]; 14 days, all conditions): relatively low
AUC(0-inf) [4]: 6520 ng·h/mL
Cmax [4]: 443 ng/mL
Tmax [4]: 6 h
half-life [4]: 7.9 h
AUC(0-t) ([4]; read-out: AUC(0-24)): 5870 ng·h/mL
IC50 [5]: 1.2 nM
water uptake [6]: 15.3%
IC50 [7]: 21 nM
Cmax [8]: 179 ng/mL
AUC(0-t) ([8]; read-out: AUC(0-24)): 786 ng·h/mL
IC50 [9]: 2 nM
